Common to all, as to assay: inhibition of tumour cell growth, NCI panel, 48 h
Experiment [1] concerns KM12 colon.
In experiment [2] the test system is HT29 colon.
Experiment [3] relates to CCRF-CEM leukemia.
For experiment [4], the system named is MDA-MB-435.
For experiment [5], the system named is UACC-62 melanoma.
In experiment [6] the test system is COLO 205 colon.
The test system of experiment [7] is SK-MEL-5 melanoma.
For experiment [8], the system named is HS 578T breast.
In experiment [9] the test system is 786-0 renal.
Experiment [10] has as its system A498 renal.
Experiment [11] concerns SK-MEL-2 melanoma.
The subject of experiment [12] is NCI/ADR-RES ovarian.

SMILES strings stand for the structures.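 Growth conditions: 96-well plates. Treatment: test compound, 48 hours, 5 concentrations. Analysis: linear interpolation between bracketing concentrations; unreached endpoints set to highest concentration. TGI marks complete inhibition of growth.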

`COc1cc(OC)c(/C=N/N=C(\N)NO)c(OC)c1`: the TGI in experiment [1] was 96.4 µM; in [2], greater than 100 µM; in experiment [3], greater than 100 µM; in [4], greater than 100 µM; in experiment [5], greater than 100 µM; in experiment [6], greater than 100 µM. Besides, the TGI in experiment [7], in [8], in experiment [9], in experiment [10], in experiment [11] and in experiment [12] was greater than 100 µM in each case.
Take `COc1cc2c[n+](C)c3c4ccccc4ccc3c2cc1OC`: the TGI was 2.65 µM in experiment [1]; greater than 47.6 µM in experiment [2]; greater than 100 µM in [3]; 15.6 µM in experiment [4]; 18 µM in experiment [5]; 5.6 µM in experiment [6]. The TGI in experiment [7] is 12.9 µM; in experiment [8] it was 13 µM; in experiment [9] it was 60.4 µM; in experiment [10], greater than 65.2 µM; in experiment [11], 34.2 µM; in experiment [12] it was greater than 100 µM.
Regarding `COC(=O)c1ccccc1CC1Cc2cc3c(cc2C1)CCC3`, the TGI is 71.1 µM in experiment [1]; greater than 100 µM in [2]; 39.1 µM in experiment [3]; 84.2 µM in experiment [4]; 52.7 µM in experiment [6]; 55.3 µM in experiment [7]. The TGI was greater than 100 µM in experiment [8]; greater than 100 µM in experiment [9]; greater than 100 µM in experiment [10]; 43.9 µM in experiment [11]; greater than 100 µM in experiment [12].
For `O=C1c2c(Br)sc(Br)c2[C@H]2NC(=S)O[C@@H]12`, the TGI in [1] is 38.1 µM; in experiment [2], 33.5 µM; in experiment [4], 29.1 µM; in experiment [5] it was 29.2 µM; in [6], 27.8 µM; in experiment [7] it was 29.7 µM. The TGI in experiment [8] was found to be 60 µM; in experiment [9], 28.5 µM; in experiment [10] it was 47.2 µM; in experiment [11], 33.4 µM; in experiment [12] it was 45.8 µM.
Turning to `COc1cc(Cn2c3c(c4cc(O)ccc42)C(=O)c2ccccc2C3=O)cc(OC)c1`, the TGI in experiment [1] was 54.8 µM; in [2], 16.2 µM; in experiment [4], greater than 100 µM; in [5], 7.64 µM; in experiment [6] it was 34.7 µM; in experiment [7], 18.7 µM. The TGI is greater than 100 µM in experiment [8]; 10.2 µM in experiment [9]; 38.6 µM in experiment [10]; greater than 100 µM in experiment [11]; 28.8 µM in experiment [12].
Take `CC(=O)CN=C(C)NNc1ccc([N+](=O)[O-])cc1[N+](=O)[O-]`: the TGI in experiment [2], in experiment [3], in experiment [4], in experiment [5], in [6] and in [7] was greater than 100 µM in each case. Moreover, the TGI in experiment [8], in experiment [9], in experiment [10], in [11] and in experiment [12] was greater than 100 µM throughout.
For `Cc1ccc(C2SC(N)=Nc3c2c(C)nn3C(=O)c2ccncc2)cc1` (stereo not drawn), the TGI in [1], in experiment [2], in experiment [3], in [4], in experiment [5] and in [6] was greater than 10 µM each time. For the same molecule, the TGI in experiment [7], in experiment [8], in experiment [9], in [11] and in experiment [12] was greater than 10 µM each time.
In the case of `COc1cc2cc(C(=O)N3CC(COS(C)(=O)=O)c4c3cc([N+](=O)[O-])c3ccccc43)[nH]c2c(OC)c1OC` (stereo not drawn), the TGI is greater than 31.6 µM in experiment [1]; greater than 31.6 µM in experiment [2]; greater than 31.6 µM in [3]; greater than 31.6 µM in [4]; greater than 31.6 µM in [5]; greater than 100 µM in [6]. Further, the TGI was greater than 31.6 µM in experiment [8], 53 µM in experiment [10], greater than 31.6 µM in experiment [11] and greater than 31.6 µM in experiment [12].
Regarding `Nc1ncnc2c1ncn2CC(OCP(=O)(O)O)Oc1ccccc1` (stereo not drawn), the TGI in [1], in experiment [3], in [4], in [5], in experiment [6] and in experiment [7] was greater than 100 µM in each case. Besides, the TGI in experiment [8], in experiment [9], in [10], in [11] and in experiment [12] was greater than 100 µM each time.
For `COc1cccc(/C=N/n2c(-c3ccccc3)n[nH]c2=O)c1`, the TGI in experiment [1], in experiment [2], in [3], in experiment [4], in [5] and in [6] was greater than 100 µM in each case. Further, the TGI was 38.8 µM in experiment [8]; greater than 100 µM in [9]; greater than 100 µM in [10]; greater than 100 µM in experiment [11]; greater than 100 µM in experiment [12].
`CC(O[Si](C)(C)C(C)(C)C)[C@H](NC(=O)OCC(Cl)(Cl)Cl)C(=O)O` (stereo partly drawn): the TGI in [1], in experiment [2], in experiment [3], in experiment [4], in [5] and in experiment [6] was greater than 100 µM each time. Also, the TGI in experiment [7], in experiment [8], in experiment [9], in [10] and in experiment [12] was greater than 100 µM each time.
Take `COC(CNC(=O)C(C)NC(=O)C(C)NC(=O)c1ccccc1)OC` (stereo not drawn): the TGI in experiment [1], in experiment [2], in [3], in [4], in experiment [5] and in experiment [6] was greater than 100 µM in each case. Moreover, the TGI in experiment [7], in [8], in experiment [9], in experiment [11] and in experiment [12] was greater than 100 µM in each case.

The record behind these values is PubChem BioAssay (NCI).
